Assay results from patent publication US20240336617A1, “Substituted Bimane Compounds and Methods of Use Thereof” (THE TRUSTEES OF THE UNIVERSITY OF PENNSYLVANIA, priority 2023, published 2024).

Assays:
[1] = Fluorescence (emission) measurements; format: physicochemical; settings: for Emission λem: Table S12; for maximum emission wavelength (λem): 50:50 ACN/PBS, excitation at λabs;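 on all read-outs here: fluorescence emission spectra recorded on a spectrofluorometer, with each compound excited at its own absorption maximum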
Method: The fluorescence spectrum of each derivative (150 μL) was measured on a Photon Technology International (PTI) QuantaMaster™ 40 fluorescence spectrometer by excitation at the maximum absorption wavelength for each compound.
The fluorescence spectrum of each derivative (150 μL) was measured on a Photon Technology International (PTJ) QuantaMaster™ 40 fluorescence spectrometer by excitation at the maximum absorption wavelength for each compound.

[2] = Fluorescent quantum yield (QY) measurements; format: physicochemical; settings: for Fluorescence QY: ACN/PBS buffer (1:1 v/v); for Fluorescence quantum yield / QY: in ACN
Method in brief: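 Fluorescence quantum yield was measured for each dye by first recording the incident excitation light spectrum with 1 mL of solvent. JASCO Quantum Yield Software then computed QY as the dye's fluorescence intensity divided by the drop in incident light intensity between dye-absent and dye-present samples. A full incident excitation spectrum with this setup needs an excitation wavelength of at least 360 nm.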

[3] = molecular target: T1, αS fibrils (Homo sapiens, UniProt P37840); experiment: Fluorescence spectra with αS fibrils; format: binding; settings: for turn on of fluorescence in the presence of αS PFFs: in vitro generated αS PFFs; for Stokes shift: difference between λex and λem; for λem, maximum emission wavelength: bound dye; for λem: PFF 50 μM; for Stokes shift in the presence of PFFs / emission peaks / emission maxima in the presence of PFFs: αS PFFs
T1 construct: intein-His6 (C, cleaved yes); made in house; host or cells: Escherichia coli BL21
Method: Fluorescence measurements were performed using a PTI QuantaMaster™ 40 fluorescence spectrometer. Fluorescence spectra of 10 μM probes (concentrated stock solution prepared as 10 mM in DMSO) (7b, 7c, 7d, 7e, 7f, 7g and 7h) in PBS buffer were measured by excitation at their absorbance maximum wavelength in the absence and presence of 50 μM αS fibrils (stock solution 100 μM αS fibrils in PBS buffer).
Fluorescence spectra with αS fibrils. Fluorescence measurements were performed using a PTI QuantaMaster 40 fluorescence spectrometer. Fluorescence spectra of 10 μM probes (concentrated stock solution prepared as 10 mM in DMSO) (5b-5f and 5h) in PBS buffer were measured by excitation at their absorbance maximum wavelength in the absence and presence of 50 μM αS fibrils (stock solution 100 μM αS fibrils in PBS buffer). […] FIGS. 77A-77F show fluorescence spectra of probes (5b-5f and 5h) with and without αS fibrils. Final concentrations of probes and αS fibrils were 10 μM and 50 μM, respectively. Emission spectra collected at each dye's maximum absorption wavelength. Ex/Em slit widths: 3 nm/3 nm. […] Absorbance is shown in FIG. 78A and FIG. 78B, whereas FIG. 78C and FIG. 78D show excitation spectra of probes 5j and 5k with and without αS fibrils. Final probe and fibrils concentrations were 10 μM and 50 μM, respectively. […] Emission wavelengths were 575 nm for 5j, 580 nm for 5k. Ex/Em slit widths: 3 nm/3 nm. […] Black line indicates incident light (αS fibrils without probe) and blue line indicates sample (αS fibrils with probe). Excitation at λexc=435 nm for 5j and λexc=463 nm for 5k and spectral collection (400-800 nm). Final concentrations of the probe and αS fibrils are the 100 μM. Ex/Em slit widths: 5 nm/5 nm.

[4] = Solvatochromic measurements; format: physicochemical; settings: organic solvents of different polarity
Method: The remaining 850 μL solution was used to obtain fluorescence images under a handheld 365 nm UV lamp.
Solvatochromic measurements. […] The remaining 850 μL solution was used to obtain fluorescence images under a handheld 365 nm UV lamp.

[5] = Molar absorptivity determination; format: physicochemical; settings: for E, molar absorptivity (ε): absence of αS PFFs (−), measured at λabs;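 on all read-outs here: molar absorptivity derived from UV-Vis absorbance spectra recorded for each derivative on a spectrometer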
Method: The absorbance spectrum of each derivative (150 μL) was measured on a Thermo Scientific Genesys 150 UV-Vis spectrometer, using 50:50 ACN/PBS as a blank.
Molar absorptivity determination. […] The absorbance spectrum of each derivative (150 μL) was measured on a Thermo Scientific Genesys 150 UV-Vis spectrometer, using 50:50 ACN/PBS as a blank.

[6] = molecular target: T1, αS fibrils; experiment: Fluorescence lifetime measurements of probes with αS fibrils; format: physicochemical; settings: for fluorescence lifetime when bound to PFFs: 100 μM αS PFFs; for Fluorescence Lifetime: 100 μM dye and PFFs; for Lifetime: with αS fibrils in PBS buffer, probe and αS fibrils 100 μM
Method: TCSPC measurements of fluorescence lifetime decays for 100 μM dyes in the presence of 100 μM αS fibrils were collected with the PTI Quantamaster™ 40 using a pulsed LED with a maximum emission at 486 nm. Fluorescence emission was collected at the indicated wavelength for each dye with 20 nm slit widths. The IRF was collected under identical conditions. Data analysis was performed with FluoFit software using an exponential decay model.

[7] = molecular target: T1, αS fibrils; experiment: Fluorescent QY measurements with αS fibrils; format: physicochemical; settings: for increase in QY with αS fibrils: presence versus absence of αS fibrils; for Relative Brightness: ratio of ε•QY in the presence and absence of PFFs; for increase in brightness in the presence of PFFs: αS PFFs
Method: (§1) For each QY measurement, the incident excitation light spectrum was collected with 100 μL of probes (100 μM) in PBS buffer. After measuring the incident light intensity, probes (7j-7m) were added to the αS fibrils (100 μM) from a concentrated stock solution (10 mM in DMSO) to a final concentration of 100 μM and the new spectrum (fluorescence intensity and new incident light intensity) was collected. Using the JASCO Quantum Yield Software, the dye QY was calculated by dividing the dye fluorescence intensity by the difference in incident light intensity in the presence and absence of fibrils.
as §1, with “[…]” for “μL”, “(5j and 5k)” for “(7j-7m)”

[8] = system: αS fibrils versus Aβ1-42 fibrils; experiment: Amyloid selectivity by plate reader, αS versus Aβ1-42 fibrils; format: binding; design: fluorescence turn-on with αS relative to Aβ1-42: dose or concentration left out as unconfirmed; settings: for fluorescence turn on with αS relative to Aβ1-42: 5 μM fibril concentrations, probe 1 μM
Method: (§2) Experiments were performed on the Tecan Spark in Greiner 96 well flat black ½ area plates using the following parameters: excitation and emission band widths 5 nm, lag time 0 μs, integration time 40 μs. A 10 mM DMSO stock solution of probes (7j-7m) and 100 μM stock of αS fibrils were used in the study described herein.

[9] = system: αS fibrils versus tau fibrils; experiment: Amyloid selectivity by plate reader, αS versus tau fibrils; format: binding; design: fluorescence turn-on with αS relative to tau: dose or concentration left out as unconfirmed; settings: for fluorescence turn on with αS relative to tau: 5 μM fibril concentrations, probe 1 μM
Method: as §2

[10] = 25 μM in ACN/PBS buffer (1:1 v/v), pH 7.4
[11] = presence of αS PFFs (+), dye 10 μM, PFFs 50 μM
[12] = ACN/PBS buffer (1:1 v/v), pH 7.4
[13] = in ACN, at maximum absorption wavelength
[14] = presence of αS PFFs (+), 100 μM dye and PFFs
[15] = presence of αS PFFs, 100 μM dye and PFFs
[16] = λex/λem = 435/575 nm for 5j and 463/580 nm for 5k

SMILES	Emission λmax ([1]; 25 μM in ACN) [nm]	Emission λmax [1, 10] [nm]	maximum emission wavelength (λem) [1] [nm]	Stokes shift ([1]; ACN/PBS buffer (1:1 v/v)) [nm]	Stokes shift ([1]; in ACN) [nm]	Fluorescence QY [2] [%]	Fluorescence quantum yield [2] [%]	QY [2]	Stokes shift ([3]; presence of αS PFFs) [nm]	λem ([3]; presence of αS PFFs, dye 10 μM) [nm]	solvatochromism / environmental sensitivity [4]	Molar Absorptivity (ε) [5, 12] [M⁻¹ cm⁻¹]	Molar Absorptivity (ε) [5, 13] [M⁻¹ cm⁻¹]	Fluorescence Lifetime ([6]; presence of αS PFFs) [ns]	Lifetime [6] [ns]	Fluorescence QY ([7]; absence of αS PFFs, 100 μM dye) [%]	Fluorescence QY [7, 15] [%]	Relative Brightness [7]	fluorescence turn on with αS relative to Aβ1-42 [8] [fold]	fluorescence turn on with αS relative to tau [9] [fold]	also measured
Cc1c(C)n2c(/C=C/c3ccc(N)cc3)c(C)c(=O)n2c1=O [Compound 7j, (E)-3-(4-aminostyryl)-2,5,6-trimethyl-1H,7H-pyrazolo[1,2-a]pyrazole-1,7-dione]	540	583	583	198	162	0.7	1.5	2%	140	575	showed sensitivity to solvent polarity	30834	32091	1.90	1.90 ± 0.01	0.17	20.7	364			Emission λem ([1]; 25 μM in ACN): 540 nm; Fluorescence quantum yield ([2]; Table S12): 1.5%; turn on of fluorescence in the presence of αS PFFs [3]: significant turn-on of orange fluorescence; Stokes shift [3, 11]: 140 nm; λem, maximum emission wavelength [3, 11]: 575 nm; Stokes shift in the presence of PFFs [3]: 140 nm; emission peaks / emission maxima in the presence of PFFs ([3]; listed as 5j): 575 nm; E, molar absorptivity (ε) [5]: 15385 M⁻¹ cm⁻¹; fluorescence lifetime when bound to PFFs [6]: 1.90 ns; Fluorescence Lifetime ([6]; presence of αS PFFs (+)): 1.90 ns; Fluorescence QY [7, 14]: 20.7%; increase in QY with αS fibrils [7]: 122 fold; Relative Brightness [7, 16]: 364; increase in brightness in the presence of PFFs [7]: 364 fold
Cc1c(C)n2c(/C=C/c3ccc(N4CCOCC4)cc3)c(C)c(=O)n2c1=O [Compound 7k, (E)-2,3,6-trimethyl-5-(4-morpholinostyryl)-1H,7H-pyrazolo[1,2-a]pyrazole-1,7-dione]	565	603		217	187	1.0	6.9	about 7%	146	570		29562	28890	2.09	2.09 ± 0.01	0.21	29.2	403	13	2	emission span across solvents (solvatochromism) [4]: 490-590 nm
Cc1c(C)n2c(/C=C/c3ccc(N(C)C)cc3)c(C)c(=O)n2c1=O [Compound 7l, (E)-3-(4-(dimethylamino)styryl)-2,5,6-trimethyl-1H,7H-pyrazolo[1,2-a]pyrazole-1,7-dione]	568	604	604	186	166	0.5	7.5	about 7%	117	580	high level of solvatochromism	30420	24742	2.27	2.27 ± 0.01	0.15	32.7	476	5	2	Emission λem ([1]; 25 μM in ACN): 568 nm; Fluorescence quantum yield ([2]; Table S12): 7.5%; QY ([2]; listed as 5k): 7.5%; emission maximum bound to αS [3]: 584 nm; turn on of fluorescence in the presence of αS PFFs [3]: significant turn-on of orange fluorescence; Stokes shift [3, 11]: 117 nm; λem, maximum emission wavelength [3, 11]: 580 nm; Stokes shift in the presence of PFFs [3]: 117 nm; emission peaks / emission maxima in the presence of PFFs [3]: 580 nm; fluorescence turn-on with αS relative to Aβ1-42 [8]: 5.2 fold; emission span across solvents (solvatochromism) [4]: 490-590 nm; E, molar absorptivity (ε) [5]: 20071 M⁻¹ cm⁻¹; fluorescence turn-on with αS relative to tau [9]: 2.8 fold; fluorescence lifetime when bound to PFFs [6]: 2.27 ns; Fluorescence Lifetime ([6]; presence of αS PFFs (+)): 2.27 ns; Fluorescence QY [7, 14]: 32.7%; increase in QY with αS fibrils [7]: 218 fold; Relative Brightness [7, 16]: 476; increase in brightness in the presence of PFFs [7]: 476 fold
Cc1c(C)n2c(/C=C/C=C/c3ccc(N(C)C)cc3)c(C)c(=O)n2c1=O [Compound 7m, 3-((1E,3E)-4-(4-(dimethylamino)phenyl)buta-1,3-dien-1-yl)-2,5,6-trimethyl-1H,7H-pyrazolo[1,2-a]pyrazole-1,7-dione]	620	640	640	204	210	0.6	13.5	14%	136	620	high levels of solvatochromism	36689	28639	1.27	1.27 ± 0.01	0.20	27.9	383	15	9	Stokes shift ([1]; ACN/PBS): 204 nm; concentration-dependent shift in the emission maximum with αS fibrils [3]: binding at multiple sites
